The results in this text go back to publication PMC7445415 (2020).

The subject of experiment [1] is poly(dA-dT)2 (DNA, polymer) AT. The experiment is described as follows: fluorescence titration, Scatchard fit. The note with it: Na+ (sodium cacodylate, I = 0.05 M); cacodylate pH 5.0, 25 °C; 1 µM compound; n fixed 0.2; polynucleotide as nucleobases; per base.
The test system of experiment [2] is poly(dG-dC)2 (DNA, polymer) GC. The experiment is described as follows: fluorescence titration, Scatchard fit. The note with it: Na+ (sodium cacodylate, I = 0.05 M); cacodylate pH 5.0, 25 °C; 1 µM compound; n fixed 0.2; polynucleotide as nucleobases; per base.
Experiment [3] deals with poly(A)-poly(U) (RNA, polymer) A/U. Put plainly: UV melting, 260 nm. The note with it: Na+ (sodium cacodylate, I = 0.05 M); cacodylate pH 5.0; r = [NDI]/[polynucleotide] = 0.3; per base.
Experiment [4] has the same test system. The experiment is described as follows: fluorescence titration, Scatchard fit. The settings on record: Na+ (sodium cacodylate, I = 0.05 M); cacodylate pH 5.0, 25 °C; 1 µM compound; n fixed 0.2; polynucleotide as nucleobases; per base.
For experiment [5] the test system is unchanged. The experiment is described as follows: ITC, one set of sites. The note with it: Na+ (sodium cacodylate, I = 0.05 M); cacodylate pH 5.0, 298 K (293 K in Experimental); n fixed 0.2; polynucleotide as nucleobases; per base. (In general: ITC needs no label: the signal is the heat of the interaction.)
In experiment [6] the test system is poly(dG-dC)2 (DNA, polymer) GC. The experiment is described as follows: ITC, one set of sites. The note with it: Na+ (sodium cacodylate, I = 0.05 M); cacodylate pH 5.0, 298 K (293 K in Experimental); n fixed 0.2; polynucleotide as nucleobases; per base.
Experiment [7] has as its system poly(dA-dT)2 (DNA, polymer) AT. The experiment is described as follows: ITC, one set of sites. The settings on record: Na+ (sodium cacodylate, I = 0.05 M); cacodylate pH 5.0, 298 K (293 K in Experimental); n fixed 0.2; polynucleotide as nucleobases; per base.
Experiment [8] deals with poly(dA-dT)2 (DNA, polymer) AT. The experiment is described as follows: UV melting, 260 nm. The settings on record: Na+ (sodium cacodylate, I = 0.05 M); cacodylate pH 5.0; r = [NDI]/[polynucleotide] = 0.3; per base.

Each structure is given as a SMILES string.

With `C[N+](C)(C)CCCN1C(=O)c2cc(NC[C@H](N)C(=O)O)c3c4c(cc(Cl)c(c24)C1=O)C(=O)N(CCC[N+](C)(C)C)C3=O`, the logKs is 6.0 in experiment [1]; 7.2 in experiment [2]; 6.0 in experiment [4]; 5.9 in experiment [5]; 6.7 in experiment [6]; 6.3 in experiment [7]. Besides, the “∆Tm” value in experiment [3] is “+17.5 ± 0.5 °C”; in experiment [8], “+21.6 ± 0.5 °C”.
As for `C[N+](C)(C)CCCN1C(=O)c2cc(NCCCC[C@H](N)C(=O)O)c3c4c(cc(Cl)c(c24)C1=O)C(=O)N(CCC[N+](C)(C)C)C3=O`, the logKs in experiment [1] was 6.1; in experiment [2], 6.6; in experiment [4], 6.4; in experiment [5] it was 6.6; in experiment [6] it was 6.7; in experiment [7] it was 6.8. Besides, the entries for the “∆Tm” value in experiment [3] and in experiment [8] were “+25.1 ± 0.5 °C” and “+28.2 ± 0.5 °C”, respectively.
With `C[N+](C)(C)CCCN1C(=O)c2cc(NCC[N+](C)(C)C)c3c4c(cc(Cl)c(c24)C1=O)C(=O)N(CCC[N+](C)(C)C)C3=O`, the logKs in experiment [1] is reported as 6.6; in experiment [2], 6.4; in experiment [4], 6.2; in experiment [5] it was 6.7; in experiment [6], 6.5; in experiment [7], 6.4. For the same compound, the entries for the “∆Tm” value in experiment [3] and in experiment [8] were “+30.3 ± 0.5 °C” and “+35.4 ± 0.5 °C”, respectively.
